In patent publication US20230295162A1 (EÖTVÖS LORÁND TUDOMÁNYEGYETEM, priority 2020, published 2023):
Like-named read-outs stand apart in the source and are kept apart here.

How the values were obtained:
Panc-1 human cell line = assay: Cytotoxicity on Panc-1, xCELLigence SP, IC50 after 24 h, 48 h, 72 h and 96 h (Example 22)
[1] = test system: COLO-205 (human colorectal adenocarcinoma) cells; assay: Colorimetric alamarBlue assay, long treatment; conditions: COLO 205, 72 h, read-out: cytotoxicity expressed in IC50, COLO-205
[2] = test system: A2058 (human metastatic melanoma) cells; assay: Colorimetric alamarBlue assay, long treatment; conditions: Homo sapiens, A2058, 72 h, read-out: cytotoxicity expressed in IC50, A-2058
Detroit 562 cell line = assay: Additional in vitro IC50 tests (Table 3); assay type: cell-based; conditions: Homo sapiens
Procedure: (§1) Cell lines were maintained according to the instructions provided by ATCC (https://www.lgcstandards-atcc.org/) in a 5% CO2 humidified incubator maintained at 37° C. temperature. Effects of compounds on cell viability were measured via CellTiter-Glo® luminescent cell viability assay (Promega, Madison, WI, USA) Cells were plated at 1000 cells/well onto a flat-bottomed, white 96 well plate (BRANDplates, cat. no.: 781965). […] After the treatment, medium was removed and CellTiter-Glo® reagent was added. The luminescence signal was recorded using a microplate reader (BioTek Synergy 2 Multi-Mode Reader, BioTek, Winooski, VT, USA).
(§2) Cell viability data (% of untreated control cells) was evaluated with Microsoft Excel. Dose-response curves (using a non-linear regression model, log (inhibitor) vs response, variable slope) were generated and IC50 values were determined using Graph Pad Prism 5.02 software (GraphPad Software, San Diego, CA, USA).

Fadu cell line = assay: Additional in vitro IC50 tests (Table 3); assay type: cell-based; conditions: Homo sapiens
Procedure: as §1, §2

EBC-1 cell line = assay: Additional in vitro IC50 tests (Table 3); assay type: cell-based; conditions: Homo sapiens
Procedure: as §1, §2

SCC-25 cell line = assay: Additional in vitro IC50 tests (Table 3); assay type: cell-based; conditions: Homo sapiens
Procedure: as §1, §2

H2228 cell line = assay: Additional in vitro IC50 tests (Table 3); assay type: cell-based; conditions: Homo sapiens, NCI-H2228
Procedure: as §1, §2

[3] = test system: LNCap human prostate cancer cell line; assay: CellTiter-Glo IC50 (Example 19); assay type: cell-based; conditions: 72 h
Procedure: (§3) Some representative imipridones and ONC212 as reference were further tested on the following human malignant cell lines: PC3 and LNCap (prostate carcinoma); BxPC3, MiaPaCa2 and Panc1 (pancreatic cancer); A549, HCC827, H1993 and H520 (lung carcinoma); MDA-MB-453 and MDA-MB-231 (breast cancer) (see Table 2 and FIGS. 1-11).
as §1, §2

[4] = test system: Panc1 pancreatic cancer cell line; assay: CellTiter-Glo IC50 (Example 19); assay type: cell-based; conditions: Homo sapiens, PANC-1, 72 h
Procedure: as §3, §1, §2

[5] = test system: MiaPaCa2 pancreatic cancer cell line; assay: CellTiter-Glo IC50 (Example 19); assay type: cell-based; conditions: Homo sapiens, MIA PaCa-2, 72 h
Procedure: as §3, §1, §2

[6] = test system: H1993 lung carcinoma cell line; assay: CellTiter-Glo IC50 (Example 19); assay type: cell-based; conditions: Homo sapiens, NCI-H1993, 72 h
Procedure: as §3, §1, §2

[7] = test system: HCC827 lung carcinoma cell line; assay: CellTiter-Glo IC50 (Example 19); assay type: cell-based; conditions: Homo sapiens, 72 h
Procedure: as §3, §1, §2

[8] = test system: PC3 human prostate cancer cell line; assay: CellTiter-Glo IC50 (Example 19); assay type: cell-based; conditions: 72 h
Procedure: as §3, §1, §2

[9] = test system: BxPC3 pancreatic cancer cell line; assay: CellTiter-Glo IC50 (Example 19); assay type: cell-based; conditions: Homo sapiens, BXPC-3, 72 h
Procedure: as §3, §1, §2

[10] = test system: H520 lung carcinoma cell line; assay: CellTiter-Glo IC50 (Example 19); assay type: cell-based; conditions: Homo sapiens, NCI-H520, 72 h
Procedure: as §3, §1, §2

[11] = test system: A549 lung carcinoma cell line; assay: CellTiter-Glo IC50 (Example 19); assay type: cell-based; conditions: Homo sapiens, 72 h
Procedure: as §3, §1, §2

[12] = test system: MDA-MB-453 breast cancer cell line; assay: CellTiter-Glo IC50 (Table 3); assay type: cell-based; conditions: Homo sapiens
Procedure: as §3, §1, §2

[13] = test system: MDA-MB-231 breast cancer cell line; assay: CellTiter-Glo IC50 (Table 3); assay type: cell-based; conditions: Homo sapiens
Procedure: as §3, §1, §2

[14] = test system: representative cell lines; assay: Cytotoxicity on representative cell lines (summary statement); assay type: cell-based; conditions: Homo sapiens; summary range, ca.
[15] = PANC-1, 72 h, read-out: IC50 (72 h) [nM]
[16] = PANC-1, 96 h, read-out: IC50 (96 h) [nM]

| SMILES | IC50 (Detroit 562 cell line) | IC50 (Fadu cell line) | IC50 (EBC-1 cell line) | IC50 (SCC-25 cell line) | IC50 (H2228 cell line) | melting point | IC50 [3] | IC50 [4] | IC50 [5] | IC50 [6] | IC50 [7] | IC50 [8] | IC50 [9] | IC50 [10] | IC50 [11] | IC50 [12] | IC50 [13] | IC50 (Panc-1 human cell line; [15]) | IC50 (Panc-1 human cell line; [16]) | other results |
| --- | --- | --- | --- | --- | --- | --- | --- | --- | --- | --- | --- | --- | --- | --- | --- | --- | --- | --- | --- | --- |
| O=C1C2=C(CCN(Cc3cccc(F)c3)C2)N2CCN=C2N1Cc1ccc(C(F)(F)F)cc1 [I/3, reference compound] |  |  |  |  |  |  |  |  |  |  |  |  |  |  |  |  |  | 45.3 ± 3.34 nM | 22.6 ± 0.856 nM | IC50 [1]: > 10000 nM; IC50 [2]: > 10000 nM |
| [N-]=[N+]=Nc1cccc(CN2CCC3=C(C2)C(=O)N(Cc2ccc(C(F)(F)F)cc2)C2=NCCN23)c1 [I/111, 7-(3-Azidobenzyl)-4-(4-(trifluoromethyl)benzyl)-2,4,6,7,8,9-hexahydroimidazo[1,2-a]pyrido[3,4-e]pyrimidin-5(1H)-one] | 3 nM | 11 nM | 8 nM | 15 nM | 13 nM | 128.8 °C | 5 nM | 9 nM | 10 nM | 6 nM | 12 nM | 7 nM | 13 nM | 6 nM | 8 nM | < 1 nM | 1 nM | 20.1 ± 1.68 nM | 8.58 ± 0.256 nM |  |
| O=C1C2=C(CCN(Cc3cc(F)cc(F)c3)C2)N2CCN=C2N1Cc1ccc(Cl)cc1 [I/124, 4-(4-Chlorobenzyl)-7-(3,5-difluorobenzyl)-2,4,6,7,8,9-hexahydroimidazo[1,2-a]pyrido[3,4-e]pyrimidin-5(1H)-one] | < 1 nM | 2 nM | 3 nM | 4 nM | 3 nM | 162.4 °C |  | 2 nM |  |  |  |  |  |  |  |  |  | 1.31 ± 0.286 nM | < 0.25 nM |  |
| O=C1C2=C(CCN(Cc3ccccc3)C2)N2CCN=C2N1Cc1ccc(C(F)(F)F)cc1 [I/1, reference compound] | 32 nM | 90 nM | 76 nM | 166 nM | 105 nM |  | 52 nM | 74 nM | 76 nM | 90 nM | 105 nM | 80 nM | 110 nM | 73 nM | 60 nM | 16 nM | 24 nM | 274 ± 15.9 nM | 185 ± 44.4 nM | IC50 [1]: 250 nM; IC50 [2]: > 10000 nM |
| O=C1C2=C(CCN(Cc3cc(F)cc(F)c3)C2)N2CCN=C2N1Cc1ccc(F)cc1 [I/7, 4-(4-Fluorobenzyl)-7-(3,5-difluorobenzyl)-2,4,6,7,8,9-hexahydroimidazo[1,2-a]pyrido[3,4-e]pyrimidin-5(1H)-one] | 3 nM | 10 nM | 9 nM | 13 nM | 10 nM | 190.5 °C | 5 nM | 11 nM | 11 nM | 10 nM | 13 nM | 9 nM | 12 nM | 7 nM | 8 nM | 1 nM | 2 nM | 27.3 ± 15.4 nM | 22.1 ± 5.98 nM | IC50 [14]: 3 to 8 nM |

The next lines start with results.

| IC50 (Detroit 562 cell line) | IC50 (Fadu cell line) | IC50 (EBC-1 cell line) | IC50 (SCC-25 cell line) | IC50 (H2228 cell line) | melting point | IC50 [3] | IC50 [4] | IC50 [5] | IC50 [6] | IC50 [7] | IC50 [8] | IC50 [9] | IC50 [10] | IC50 [11] | IC50 [12] | IC50 [13] | SMILES | IC50 (Panc-1 human cell line; [15]) | IC50 (Panc-1 human cell line; [16]) | other results |
| --- | --- | --- | --- | --- | --- | --- | --- | --- | --- | --- | --- | --- | --- | --- | --- | --- | --- | --- | --- | --- |
| 7 nM | 19 nM | 17 nM | 31 nM | 24 nM | 155.5 °C | 5 nM | 14 nM | 16 nM | 12 nM | 15 nM | 11 nM | 14 nM | 8 nM | 16 nM | 2 nM | 3 nM | [N-]=[N+]=Nc1ccc(CN2C(=O)C3=C(CCN(Cc4cc(F)cc(F)c4)C3)N3CCN=C23)cc1 [I/107, 4-(4-Azidobenzyl)-7-(3,5-difluorobenzyl)-2,4,6,7,8,9-hexahydroimidazo[1,2-a]pyrido[3,4-e]pyrimidin-5(1H)-one] | 102 ± 24.4 nM | 49.6 ± 17 nM |  |
| 2 nM | 5 nM | 5 nM | 6 nM | 5 nM | 168 °C | 2 nM | 3 nM | 3 nM | 4 nM | 5 nM | 2 nM | 4 nM | 3 nM | 4 nM | < 1 nM | < 1 nM | O=C1C2=C(CCN(Cc3cc(F)cc(F)c3)C2)N2CCN=C2N1Cc1ccc(C(F)(F)F)cc1 [I/30, 7-(3,5-Difluorobenzyl)-4-(4-(trifluoromethyl)benzyl)-2,4,6,7,8,9-hexahydroimidazo[1,2-a]pyrido[3,4-e]pyrimidin-5(1H)-one] | 2.08 ± 0.267 nM | 0.517 ± 0.0232 nM | IC50 [14]: 3 to 8 nM |
